Laboratory results from BigSolDB 2.1.

Conditions: in chloroform

Brc1sc(Br)c(Br)c1Br
Conditions	solubility (mole fraction)
278.15 K	0.0198
282.15 K	0.0231
286.15 K	0.0265
290.15 K	0.0304
294.15 K	0.0349
298.15 K	0.0401
302.15 K	0.0458
306.15 K	0.0517
310.15 K	0.0588
314.15 K	0.066
318.15 K	0.0745
322.15 K	0.0828
